Assay results from the supplement of paper PMC8671470.

Legend:
Conditions in all cases: 72 h
[1] = system: myeloid leukemia patient primary cells Pat.11; test: cell viability (% survival relative to DMSO control); higher = less cytotoxic
Procedure, shortened: (§1)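 Where an area under the curve appears, it was computed with the drc and PharmacoGx R packages from log-logistic fits. Those fits used four parameters. The underlying viability data came from CellTiter-Glo after 72 h, normalised to DMSO and 10 μM proteasome-inhibitor wells, with thawed, Ficoll-purified AML or CML patient mononuclear cells at 10,000 cells/well in RPMI 1640 with 10% FBS on 384-well plates pre-printed with 70 compounds at five tenfold concentrations (1–10,000 nM) in duplicate.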

[2] = system: myeloid leukemia patient primary cells Pat.7; test: as above
Procedure, shortened: as §1

[3] = system: myeloid leukemia patient primary cells Pat.2; test: as above
Procedure, shortened: as §1

[4] = system: myeloid leukemia patient primary cells Pat.3; test: as above
Procedure, shortened: as §1

[5] = system: myeloid leukemia patient primary cells Pat.6; test: as above
Procedure, shortened: as §1

[6] = system: myeloid leukemia patient primary cells Pat.1; test: as above
Procedure, shortened: as §1

[7] = system: myeloid leukemia patient primary cells Pat.15; test: as above
Procedure, shortened: as §1

[8] = system: myeloid leukemia patient primary cells Pat.5; test: as above
Procedure, shortened: as §1

[9] = system: myeloid leukemia patient primary cells Pat.10; test: as above
Procedure, shortened: as §1

[10] = system: myeloid leukemia patient primary cells Pat.13; test: as above
Procedure, shortened: as §1

[11] = system: myeloid leukemia patient primary cells Pat.12; test: as above
Procedure, shortened: as §1

[12] = system: myeloid leukemia patient primary cells Pat.14; test: as above
Procedure, shortened: as §1

[13] = system: myeloid leukemia patient primary cells Pat.8; test: as above
Procedure, shortened: as §1

[14] = system: myeloid leukemia patient primary cells Pat.4; test: as above
Procedure, shortened: as §1

HL-60 = test: area under dose-response curve (viability, 1 nM-10 uM) (fraction (0-1)); higher = more sensitive
Procedure, shortened: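 In 384-well plates, the full library was rescreened in duplicate on HL-60 cells in RPMI 1640 with 10% FBS, at 1–10,000 nM in five tenfold concentrations, for 72 h at 37 °C, 5% CO2. Each run also held DMSO or 100 nM of one of three metabolic inhibitors. Viability was measured by CellTiter-Glo and normalised to DMSO wells and to wells with proteasome inhibitor, present at 10 μM. Any area under the curve comes from four-parameter log-logistic fitting with drc and PharmacoGx.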

KCL-22 = test: cell viability (% survival relative to DMSO control, bortezomib = 0%); higher = less cytotoxic
Procedure, shortened: (§2)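 In 384-well plates pre-printed with compounds at 1, 10, 100, 1000 or 10000 nM, duplicate wells received cells from 10 AML and 5 CML lines at densities within the linear growth range. The plates stayed at 37 °C with 5% CO2 for 72 h before CellTiter-Glo luminescence was recorded. Each entry is averaged percent survival. Scaling placed vehicle at 100% and a 10 µM positive control at 0%.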

KG-1 = test: as above
Procedure, shortened: as §2

MOLM-13 = test: as above
Procedure, shortened: as §2

[15] = co-treatment: GSK2194069 100 nM
[16] = co-treatment: pictilisib 100 nM

## O=C(O)C1=CC(=C(c2ccc(O)c(C(=O)O)c2)c2ccc(O)c(C(=O)O)c2)C=CC1=O [Aurintricarboxylic acid]
[1]; 1 nM
  cell viability: > 100%
[1]; 10 nM
  cell viability: 95.8%
[1]; 100 nM
  cell viability: > 100%
[1]; 1000 nM
  cell viability: > 100%
[1]; 10000 nM
  cell viability: > 100%
[2]; 1 nM
  cell viability: 87.2%
[2]; 10 nM
  cell viability: 94.1%
[2]; 100 nM
  cell viability: > 100%
[2]; 1000 nM
  cell viability: > 100%
[2]; 10000 nM
  cell viability: 70.9%
[3]; 1 nM
  cell viability: 98%
[3]; 10 nM
  cell viability: 99.7%
[3]; 100 nM
  cell viability: 97.8%
[3]; 1000 nM
  cell viability: > 100%
[3]; 10000 nM
  cell viability: 98.8%
[4]; 1 nM
  cell viability: > 100%
[4]; 10 nM
  cell viability: > 100%
[4]; 100 nM
  cell viability: 99.7%
[4]; 1000 nM
  cell viability: 91.7%
[4]; 10000 nM
  cell viability: > 100%
[5]; 1 nM
  cell viability: 99.8%
[5]; 10 nM
  cell viability: 97.5%
[5]; 100 nM
  cell viability: > 100%
[5]; 1000 nM
  cell viability: > 100%
[5]; 10000 nM
  cell viability: 97.7%
[6]; 1 nM
  cell viability: 92.9%
[6]; 10 nM
  cell viability: 94.4%
[6]; 100 nM
  cell viability: 96.2%
[6]; 1000 nM
  cell viability: > 100%
[6]; 10000 nM
  cell viability: > 100%
[7]; 1 nM
  cell viability: 96.4%
[7]; 10 nM
  cell viability: > 100%
[7]; 100 nM
  cell viability: 89.3%
[7]; 1000 nM
  cell viability: 86.6%
[7]; 10000 nM
  cell viability: 87.3%
[8]; 1 nM
  cell viability: > 100%
[8]; 10 nM
  cell viability: 88.3%
[8]; 100 nM
  cell viability: 91.7%
[8]; 1000 nM
  cell viability: > 100%
[8]; 10000 nM
  cell viability: > 100%
[9]; 1 nM
  cell viability: 98.4%
[9]; 10 nM
  cell viability: 90.3%
[9]; 100 nM
  cell viability: 91.9%
[9]; 1000 nM
  cell viability: > 100%
[9]; 10000 nM
  cell viability: > 100%
[10]; 1 nM
  cell viability: 89.1%
[10]; 10 nM
  cell viability: 91.4%
[10]; 100 nM
  cell viability: 94.1%
[10]; 1000 nM
  cell viability: > 100%
[10]; 10000 nM
  cell viability: 93.4%
[11]; 1 nM
  cell viability: 96.5%
[11]; 10 nM
  cell viability: 97.4%
[11]; 100 nM
  cell viability: 99.8%
[11]; 1000 nM
  cell viability: > 100%
[11]; 10000 nM
  cell viability: 99.6%
[12]; 1 nM
  cell viability: 92.5%
[12]; 10 nM
  cell viability: > 100%
[12]; 100 nM
  cell viability: 98.6%
[12]; 1000 nM
  cell viability: > 100%
[12]; 10000 nM
  cell viability: 92.1%
[13]; 1 nM
  cell viability: 92.5%
[13]; 10 nM
  cell viability: 87.6%
[13]; 100 nM
  cell viability: 79.7%
[13]; 1000 nM
  cell viability: 94.2%
[13]; 10000 nM
  cell viability: 79.4%
[14]; 1 nM
  cell viability: 99.3%
[14]; 10 nM
  cell viability: 81.2%
[14]; 100 nM
  cell viability: 83.3%
[14]; 1000 nM
  cell viability: > 100%
[14]; 10000 nM
  cell viability: 91%
HL-60; co-treatment: AZD3965 100 nM
  area under dose-response curve: < 0.0301
HL-60; co-treatment: DMSO vehicle
  area under dose-response curve: < 0.0301
HL-60; [15]
  area under dose-response curve: < 0.0301
HL-60; [16]
  area under dose-response curve: < 0.0301
KCL-22; 1 nM
  cell viability: 131%
KCL-22; 10 nM
  cell viability: 94.8%
KCL-22; 100 nM
  cell viability: 92%
KCL-22; 1000 nM
  cell viability: 116%
KCL-22; 10000 nM
  cell viability: 119%
KG-1; 1 nM
  cell viability: 104%
KG-1; 10 nM
  cell viability: 94.5%
KG-1; 100 nM
  cell viability: 99.9%
KG-1; 1000 nM
  cell viability: 89.6%
KG-1; 10000 nM
  cell viability: 78.9%
MOLM-13; 1 nM
  cell viability: 91.3%
MOLM-13; 10 nM
  cell viability: 101%
MOLM-13; 100 nM
  cell viability: 107%
MOLM-13; 1000 nM
  cell viability: 82.8%
MOLM-13; 10000 nM
  cell viability: 30.9%

## CCN(CC)CCCC(C)Nc1ccnc2cc(Cl)ccc12 (stereo not given) [Chloroquine]
HL-60; co-treatment: AZD3965 100 nM
  area under dose-response curve: < 0.0301
HL-60; co-treatment: DMSO vehicle
  area under dose-response curve: < 0.0301
HL-60; [15]
  area under dose-response curve: < 0.0301
HL-60; [16]
  area under dose-response curve: < 0.0301
KCL-22; 1 nM
  cell viability: 95.6%
KCL-22; 10 nM
  cell viability: 106%
KCL-22; 100 nM
  cell viability: 100%
KCL-22; 1000 nM
  cell viability: 95.7%
KCL-22; 10000 nM
  cell viability: 102%
KG-1; 1 nM
  cell viability: 112%
KG-1; 10 nM
  cell viability: 101%
KG-1; 100 nM
  cell viability: 89.7%
KG-1; 1000 nM
  cell viability: 102%
KG-1; 10000 nM
  cell viability: 88.1%
MOLM-13; 1 nM
  cell viability: 103%
MOLM-13; 10 nM
  cell viability: 81.8%
MOLM-13; 100 nM
  cell viability: 112%
MOLM-13; 1000 nM
  cell viability: 107%
MOLM-13; 10000 nM
  cell viability: 101%

## NCCCC(N)(C(=O)O)C(F)F (stereo not given) [Difluoromethylornithine]
HL-60; co-treatment: AZD3965 100 nM
  area under dose-response curve: < 0.0301
HL-60; co-treatment: DMSO vehicle
  area under dose-response curve: < 0.0301
HL-60; [15]
  area under dose-response curve: < 0.0301
HL-60; [16]
  area under dose-response curve: < 0.0301
KCL-22; 1 nM
  cell viability: 111%
KCL-22; 10 nM
  cell viability: 84.4%
KCL-22; 100 nM
  cell viability: 88.1%
KCL-22; 1000 nM
  cell viability: 95%
KCL-22; 10000 nM
  cell viability: 101%
KG-1; 1 nM
  cell viability: 96.1%
KG-1; 10 nM
  cell viability: 88.8%
KG-1; 100 nM
  cell viability: 90.8%
KG-1; 1000 nM
  cell viability: 95.1%
KG-1; 10000 nM
  cell viability: 105%
MOLM-13; 1 nM
  cell viability: 87.2%
MOLM-13; 10 nM
  cell viability: 103%
MOLM-13; 100 nM
  cell viability: 93.3%
MOLM-13; 1000 nM
  cell viability: 107%
MOLM-13; 10000 nM
  cell viability: 101%

## CCCc1cc(-c2nc(-c3ccc(C)cc3)cs2)ccn1 [Fatostatin]
HL-60; co-treatment: AZD3965 100 nM
  area under dose-response curve: < 0.0301
HL-60; co-treatment: DMSO vehicle
  area under dose-response curve: < 0.0301
HL-60; [15]
  area under dose-response curve: 0.0533
HL-60; [16]
  area under dose-response curve: 0.0342
KCL-22; 1 nM
  cell viability: 98.3%
KCL-22; 10 nM
  cell viability: 86.2%
KCL-22; 100 nM
  cell viability: 92.5%
KCL-22; 1000 nM
  cell viability: 113%
KCL-22; 10000 nM
  cell viability: 55.3%
KG-1; 1 nM
  cell viability: 102%
KG-1; 10 nM
  cell viability: 99.8%
KG-1; 100 nM
  cell viability: 106%
KG-1; 1000 nM
  cell viability: 90.3%
KG-1; 10000 nM
  cell viability: 23.1%
MOLM-13; 1 nM
  cell viability: 89.2%
MOLM-13; 10 nM
  cell viability: 78.1%
MOLM-13; 100 nM
  cell viability: 106%
MOLM-13; 1000 nM
  cell viability: 108%
MOLM-13; 10000 nM
  cell viability: 104%

## Cl.NC(CCC(=O)Nc1ccc([N+](=O)[O-])cc1)C(=O)O (stereo not given) [GPNA]
HL-60; co-treatment: AZD3965 100 nM
  area under dose-response curve: < 0.0301
HL-60; co-treatment: DMSO vehicle
  area under dose-response curve: < 0.0301
HL-60; [15]
  area under dose-response curve: < 0.0301
HL-60; [16]
  area under dose-response curve: < 0.0301
KCL-22; 1 nM
  cell viability: 106%
KCL-22; 10 nM
  cell viability: 91%
KCL-22; 100 nM
  cell viability: 110%
KCL-22; 1000 nM
  cell viability: 96.5%
KCL-22; 10000 nM
  cell viability: 102%
KG-1; 1 nM
  cell viability: 112%
KG-1; 10 nM
  cell viability: 115%
KG-1; 100 nM
  cell viability: 95.9%
KG-1; 1000 nM
  cell viability: 102%
KG-1; 10000 nM
  cell viability: 108%
MOLM-13; 1 nM
  cell viability: 101%
MOLM-13; 10 nM
  cell viability: 99.6%
MOLM-13; 100 nM
  cell viability: 109%
MOLM-13; 1000 nM
  cell viability: 98.2%
MOLM-13; 10000 nM
  cell viability: 134%
